In the test the target is T1, human α7 nAChR (Homo sapiens, UniProt P36544).
T1 construct: expressed in transfected cells; host or cells: Xenopus oocytes
As to the kind of experiment: Two-electrode voltage clamping of human α7 nAChR expressed in Xenopus oocytes (net-charge / peak current relative to 60 μM ACh). The conditions noted are these: for Potentiated response: 30 μM test compound + 10 μM PNU-120596 co-application; for Potentiated response / Relative response: relative to 60 μM ACh control, mean ± SEM, N ≥ 4; for Relative response: net-charge response to 30 μM test compound alone; for functional classification at α7 nAChR: 30 μM alone and with 10 μM PNU-120596, partial agonist = net charge > 1/10th ACh control; for PNU Response: 30 μM compound + 10 μM PNU-120596, relative to 60 μM ACh controls (n ≥ 4); for Net Charge / Peak current: 30 μM compound alone, relative to 60 μM ACh controls (n ≥ 4); for Ratio (peak current to net charge): 30 μM, normalized peak current / normalized net charge; for Estimated Rank efficacy / Estimated Rank potency: rank among six partial agonists; for Estimated Rank potency: from peak-current-to-net-charge ratio; for PAM-dependent currents relative to ACh: co-application with PNU-120596, meta-substituted series. The test is classed as cell-based. The method, then:
Electrophysiology: The panel of compounds synthesized was assayed using human α7 nAChR expressed in Xenopus oocytes and two-electrode voltage clamping. The partial agonism activity was evaluated, quantified as net-charge for 30 μM applications of compounds, measured relative to the control response to applications of 60 μM ACh. The induction of PAM-sensitive desensitization was detected as the net-charge responses when compounds were co-applied with the PAM PNU-120596 (30 μM compound+10 μM PNU-120596), measured relative to responses to 60 μM ACh applied alone. […] It is a unique property of α7 orthosteric agonist-induced currents that they vary systematically in the relationship between peak current and net charge as a function of the effective concentration applied (Papke & Papke (2002) Br. J. Pharm. 137: 49-61; Papke & Thinschmidt (1998) Neurosci. Let. 256: 163-166). This was due to the concentration-dependent desensitization of the receptors, which is likely to be associated with high levels of agonist binding site occupancy (Williams et al., (2011) J. Gen. Physiol. 137: 369-384) and is observed even when agonists are rapidly applied to small cells (Williams et al., (2012) Mol. Pharmacol. 82: 746-759) or acutely dissociated neurons (Uteshev et al., (2002) Brain Res. 948: 33-46). The control ACh concentration used for these experiments is roughly the EC80 for the net-charge responses.
By normalizing both the peak currents and net-charge measurements of the drug responses at the probe concentration of 30 μM (FIG. 3B) to those of the ACh control, the relationship between the probe concentration and the EC for each of the drugs was estimated (Papke, R. L. (2005) Life Sci.). At a concentration where the ratio of the normalized measures equaled one, the drug would be at the same effective concentration as 60 μM ACh.
Electrophysiology: New compounds were assayed for activity with the α7 nAChR expressed in Xenopus oocytes using two-electrode voltage clamping as previously described in Papke et al., (2014) J. Pharmacol. Experimental Therap. 350: 665-680, incorporated herein by reference in its entirety, and compared to responses evoked by 60 μM Ach (FIGS. 5 and 6). The compound set was assayed at a concentration of 30 μM to provide a standard comparison benchmark.
Based on earlier experience this concentration is high enough to provide an observable response and low enough to avoid possible complications such as channel block. The net-charge response for each compound application is reported relative to those for ACh control applications. Data were expressed as the mean ±S.E.M. from at least four oocytes for each experiment and were plotted by Kaleidagraph (Abelbeck Software, Reading, Pa.).

T1 sequence (P36544 23-502): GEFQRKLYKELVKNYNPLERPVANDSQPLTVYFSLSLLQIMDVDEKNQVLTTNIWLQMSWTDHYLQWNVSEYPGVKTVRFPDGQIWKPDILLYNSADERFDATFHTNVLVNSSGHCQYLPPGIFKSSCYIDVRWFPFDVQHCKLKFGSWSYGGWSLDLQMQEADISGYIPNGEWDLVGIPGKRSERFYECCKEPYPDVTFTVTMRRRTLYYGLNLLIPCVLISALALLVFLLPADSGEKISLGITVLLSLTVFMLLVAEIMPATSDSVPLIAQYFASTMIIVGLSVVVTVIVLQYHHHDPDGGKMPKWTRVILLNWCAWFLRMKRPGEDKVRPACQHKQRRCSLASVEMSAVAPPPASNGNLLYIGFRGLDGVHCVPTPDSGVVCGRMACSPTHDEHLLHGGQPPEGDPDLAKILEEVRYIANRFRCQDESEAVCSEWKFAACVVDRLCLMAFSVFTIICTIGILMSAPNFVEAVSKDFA

As to `CCN1CCN(c2cccc(Cl)c2)CC1` [Compound 1f, 1-(3-chlorophenyl)-4-ethylpiperazine], the Potentiated response amounted to 0.1 ± 0.1 and the Relative response worked out at 0.009 ± 0.008.
Take `CCN1CCN(c2cccc(Br)c2)CC1` [Compound 1p, 1-(3-bromophenyl)-4-ethylpiperazine]: the “functional classification at α7 nAChR” value is “modest silent agonism”, the Potentiated response stood at 6.9±2.4 and the Relative response was 0.000 ± 0.003. Moreover, where the note is “PAM co-application response”, the “response relative to diEPP” value was “approximately 5 fold” and the “response relative to its corresponding quaternary salt 2p” value came to 0.69 fold.
For the molecule `CC[N+]1(CC)CCN(c2ccc(C#N)cc2)CC1.[I-]` [Compound 2b, 4-(4-cyanophenyl)-1,1-diethylpiperazin-1-ium iodide], the “functional classification at α7 nAChR” value is given as “partial agonists”, the “PNU Response” value is 68 ± 25, the “Net Charge” value stood at 0.23 ± 0.02 and the Peak current is listed as 0.10 ± 0.01. Further, the Potentiated response was found to be 68.0 ± 25.4, the “Ratio (peak current to net charge)” value worked out at 0.43, the Relative response is recorded as 0.234 ± 0.024 and the “Estimated Rank efficacy” value is 3. Further, the “Estimated Rank potency” value is on record as 6.
Regarding `CC[N+]1(CC)CCN(c2ccc(OC)cc2)CC1.[I-]` [Compound 2c, 1,1-diethyl-4-(4-methoxyphenyl)piperazin-1-ium iodide], the “functional classification at α7 nAChR” value was “candidate silent agonists”, the Potentiated response came to 11.6 ± 0.3 and the Relative response is recorded as 0.063 ± 0.014.
On to `CC[N+]1(CC)CCN(c2ccc(Cl)cc2)CC1.[I-]` [Compound 2e, 4-(4-chlorophenyl)-1,1-diethylpiperazin-1-ium iodide], for which the “functional classification at α7 nAChR” value is given as “partial agonists”, the “PNU Response” value was 18 ± 6, the “Net Charge” value was 0.23 ± 0.05 and the Peak current is on record as 0.17 ± 0.02. The Potentiated response is given as 18.3 ± 6.2, the “Ratio (peak current to net charge)” value is 0.71, the Relative response was 0.234 ± 0.048 and the “Estimated Rank efficacy” value is recorded as 5. Also, the “Estimated Rank potency” value is 1.
As to `CC[N+]1(CC)CCN(c2cccc(Cl)c2)CC1.[I-]` [Compound 2f, 4-(3-chlorophenyl)-1,1-diethylpiperazin-1-ium iodide], the “functional classification at α7 nAChR” value is recorded as “candidate silent agonists”, the Potentiated response is 4.2 ± 1.0, the “PAM-dependent currents relative to ACh” value turned out to be 4.23 fold and the Relative response was 0.020 ± 0.003.
In the case of `CC[N+]1(CC)CCN(c2ccccc2C)CC1.[I-]` [Compound 2h, 1,1-diethyl-4-o-tolylpiperazin-1-ium iodide], the “functional classification at α7 nAChR” value is “partial agonists”, the “PNU Response” value came to 16 ± 2, the “Net Charge” value is 0.32 ± 0.07 and the Peak current is recorded as 0.15 ± 0.02. Moreover, the Potentiated response is 16.4 ± 2.4, the “Ratio (peak current to net charge)” value was 0.46, the Relative response was determined as 0.319 ± 0.066 and the “Estimated Rank efficacy” value is given as 1. Moreover, the “Estimated Rank potency” value is listed as 5.
Regarding `CC[N+]1(CC)CCN(c2cccc(C#N)c2)CC1.[I-]` [Compound 2i, 4-(3-cyanophenyl)-1,1-diethylpiperazin-1-ium iodide], the “functional classification at α7 nAChR” value was “no significant activity as either partial agonists or as silent agonists”, the Potentiated response amounted to 1.5 ± 0.7 and the Relative response was 0.022 ± 0.024. Besides, the “PAM-dependent response compared to the parent diEPP” value (co-application with PNU-120596) is “equivalent”.
Turning to `CC[N+]1(CC)CCN(c2ccccc2Cl)CC1.[I-]` [Compound 2j, 4-(2-chlorophenyl)-1,1-diethylpiperazin-1-ium iodide], the “functional classification at α7 nAChR” value is reported as “partial agonists”, the “PNU Response” value amounted to 37 ± 6, the “Net Charge” value is recorded as 0.37 ± 0.05 and the Peak current stood at 0.23 ± 0.03. Further, the Potentiated response was 36.6 ± 6.1, the “Ratio (peak current to net charge)” value was 0.63, the Relative response is 0.367 ± 0.054 and the “Estimated Rank efficacy” value was 2. The “Estimated Rank potency” value was 4.
Consider `CC[N+]1(CC)CCN(c2cccc(O)c2)CC1.[I-]` [Compound 2k, 1,1-diethyl-4-(3-hydroxyphenyl)piperazin-1-ium iodide], for which the “functional classification at α7 nAChR” value was “partial agonists”, the “PNU Response” value stood at 31 ± 5, the “Net Charge” value worked out at 0.28 ± 0.02 and the Peak current is listed as 0.19 ± 0.02. The Potentiated response amounted to 31.4 ± 5.1, the “Ratio (peak current to net charge)” value came out at 0.67, the Relative response came to 0.283 ± 0.013 and the “Estimated Rank efficacy” value is listed as 4. The “Estimated Rank potency” value is 3.
On to `CC[N+]1(CC)CCN(c2ccc(OC)cc2OC)CC1.[I-]` [Compound 2l, 4-(2,4-dimethoxyphenyl)-1,1-diethylpiperazin-1-ium iodide], for which the “functional classification at α7 nAChR” value was “not a partial agonist”, the Potentiated response is given as 1.1 ± 0.1 and the Relative response came out at 0.014 ± 0.009.
For `CC[N+]1(CC)CCN(c2ccc3ccccc3c2)CC1.[I-]` [Compound 2m, 1,1-diethyl-4-(naphthalen-2-yl)piperazin-1-ium iodide], the “functional classification at α7 nAChR” value is recorded as “partial agonist”, the “PNU Response” value came out at 16 ± 2, the “Net Charge” value is 0.14 ± 0.02 and the Peak current came to 0.10 ± 0.02. Besides, the Potentiated response was 15.9 ± 2.3, the “Ratio (peak current to net charge)” value stood at 0.71, the Relative response is reported as 0.143 ± 0.018 and the “Estimated Rank efficacy” value is recorded as 6. Moreover, the “Estimated Rank potency” value was 1.
As for `CC[N+]1(CC)CCN(c2cccc(C(F)(F)F)c2)CC1.[I-]` [Compound 2o, 1,1-diethyl-4-(3-(trifluoromethyl)phenyl)piperazin-1-ium iodide], the “functional classification at α7 nAChR” value was “candidate silent agonists”, the Potentiated response is given as 3.1 ± 2.1 and the Relative response is recorded as 0.000 ± 0.002.
For `CC[N+]1(CC)CCN(c2ccc(Br)cc2)CC1.[I-]` [Compound 2q, 4-(4-bromophenyl)-1,1-diethylpiperazin-1-ium iodide], the Potentiated response is 12.3 ± 3.5 and the Relative response is listed as 0.270 ± 0.017.
As to `CC[N+]1(CC)CCN(c2ccc(F)cc2)CC1.[I-]` [Compound 2r, 1,1-diethyl-4-(4-fluorophenyl)piperazin-1-ium iodide], the “functional classification at α7 nAChR” value was “candidate silent agonists”, the Potentiated response was determined as 22.9 ± 5.8 and the Relative response is given as 0.010 ± 0.002.
For the molecule `CC[N+]1(CC)CCN(c2cccc(F)c2)CC1.[I-]` [Compound 2s, 1,1-diethyl-4-(3-fluorophenyl)piperazin-1-ium iodide], the “functional classification at α7 nAChR” value is reported as “no significant activity as either partial agonists or as silent agonists”, the Potentiated response is listed as 0.2 ± 0.1, the “PAM-dependent currents relative to ACh” value is on record as 0.2 fold and the Relative response worked out at 0.061 ± 0.089.

The values are drawn from patent US11155551B2, “Nicotinic acetylcholine receptor silent agonists” (University of Florida Research Foundation, Inc., priority 2015, dated 2021).
